Positions count from the first letter of the chain named. Like-named read-outs stand apart in the source and are kept apart here.
Key:
[1] = molecular target: T1, OCT2 Ser270 (Ala270Ser) (Homo sapiens, UniProt O15244); experiment: Ranitidine uptake in HEK293 cells overexpressing OCT2 variant (Ser270); type: in vitro ADME; details: 1 μM ranitidine, 2 min, not significant
T1 sequence (O15244 1-555): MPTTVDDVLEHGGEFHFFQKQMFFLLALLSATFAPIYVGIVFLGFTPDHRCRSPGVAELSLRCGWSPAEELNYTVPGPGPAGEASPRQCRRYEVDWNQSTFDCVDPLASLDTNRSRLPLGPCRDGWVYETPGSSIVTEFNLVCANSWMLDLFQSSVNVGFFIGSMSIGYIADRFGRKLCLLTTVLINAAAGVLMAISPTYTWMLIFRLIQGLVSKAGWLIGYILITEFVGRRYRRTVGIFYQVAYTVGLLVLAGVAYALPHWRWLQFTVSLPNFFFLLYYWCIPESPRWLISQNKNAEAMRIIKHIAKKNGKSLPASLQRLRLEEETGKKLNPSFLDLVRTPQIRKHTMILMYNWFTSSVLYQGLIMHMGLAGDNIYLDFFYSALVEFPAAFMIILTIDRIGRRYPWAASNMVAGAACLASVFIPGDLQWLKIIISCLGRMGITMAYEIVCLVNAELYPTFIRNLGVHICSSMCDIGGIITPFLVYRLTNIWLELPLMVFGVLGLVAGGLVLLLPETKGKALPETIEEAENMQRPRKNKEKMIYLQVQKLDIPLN
Source text: (§1) HEK293 or CHO cells overexpressing the human OCT1 alleles *1A (characterized by the amino acid substitution Met408Val), *1B, *1C (Phe160Leu), *1D (Pro341Leu/Met408Val), *2 (Met420del), *3 (Arg61Cys), *4 (Gly401Ser), *5 (Gly465Arg/Met420del), *6 (Cys88Arg/Met420del), *7 (Ser14Phe), *8A (Arg488Met), *8B (Arg488Met/Met408Val), *9 (Pro117Leu), *10 (Ser189Leu), *11 (Ile449Thr), *12 (Ser29Leu), or *13 (Thr245Met), the human OCT2 reference and variant alleles (Ala270Ser), human OCT3, and the control cells (transfected with the empty pcDNA5 vector) were generated by targeted chromosomal integration using the Flp-In™ System (Life Technologies, Darmstadt, Germany).
(§2) Six hundred thousand HEK293 or CHO cells were plated per well in 12-well plates (pre-coated with poly-D-lysine) and were grown for 48 hours to reach confluence. Cells were kept at 37°C and 5% CO2 in DMEM (HEK293) or RPMI (CHO), supplemented with 10% FCS, 100 U/ml penicillin, and 100 μg/ml streptomycin. Uptake experiments were performed at pH 7.4 using HBSS supplemented with 10 mM HEPES buffer (herein referred to as HBSS+). […]
(§3) For all transport measurements, the intracellular amount of substrate was normalized to the total amount of protein of the sample as measured using the bicinchoninic acid assay [49].
(§4) For quantification of intracellular substrates, the cell debris were removed by centrifugation at 17,000 x g for 10 min. […]

[2] = molecular target: T2, OCT3 (Homo sapiens, UniProt O75751); experiment: Ranitidine uptake in HEK293 cells overexpressing OCT3; type: in vitro ADME
T2 construct: expressed in transfected cells; host or cells: HEK293 (Flp-In)
T2 sequence (O75751 1-556): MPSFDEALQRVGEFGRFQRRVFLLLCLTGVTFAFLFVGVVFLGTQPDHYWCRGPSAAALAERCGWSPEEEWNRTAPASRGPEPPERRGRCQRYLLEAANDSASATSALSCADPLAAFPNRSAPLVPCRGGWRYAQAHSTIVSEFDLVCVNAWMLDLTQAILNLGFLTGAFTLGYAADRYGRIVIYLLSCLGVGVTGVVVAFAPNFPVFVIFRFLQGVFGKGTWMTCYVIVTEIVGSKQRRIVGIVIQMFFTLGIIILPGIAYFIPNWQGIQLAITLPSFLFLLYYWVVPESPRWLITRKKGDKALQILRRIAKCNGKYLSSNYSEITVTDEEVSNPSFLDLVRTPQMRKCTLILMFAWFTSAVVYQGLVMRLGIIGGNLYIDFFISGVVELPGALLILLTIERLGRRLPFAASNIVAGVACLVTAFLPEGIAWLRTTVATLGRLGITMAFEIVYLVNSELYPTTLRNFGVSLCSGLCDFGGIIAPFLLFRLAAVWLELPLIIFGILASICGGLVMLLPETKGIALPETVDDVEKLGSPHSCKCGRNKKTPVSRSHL
Source text: as §1, §2, §3, §4

[3] = molecular target: T3, OCT1*3 (Arg61Cys) (Homo sapiens, UniProt O15245, L160F/R61C)
T3 sequence (O15245 1-554 R61C/L160F): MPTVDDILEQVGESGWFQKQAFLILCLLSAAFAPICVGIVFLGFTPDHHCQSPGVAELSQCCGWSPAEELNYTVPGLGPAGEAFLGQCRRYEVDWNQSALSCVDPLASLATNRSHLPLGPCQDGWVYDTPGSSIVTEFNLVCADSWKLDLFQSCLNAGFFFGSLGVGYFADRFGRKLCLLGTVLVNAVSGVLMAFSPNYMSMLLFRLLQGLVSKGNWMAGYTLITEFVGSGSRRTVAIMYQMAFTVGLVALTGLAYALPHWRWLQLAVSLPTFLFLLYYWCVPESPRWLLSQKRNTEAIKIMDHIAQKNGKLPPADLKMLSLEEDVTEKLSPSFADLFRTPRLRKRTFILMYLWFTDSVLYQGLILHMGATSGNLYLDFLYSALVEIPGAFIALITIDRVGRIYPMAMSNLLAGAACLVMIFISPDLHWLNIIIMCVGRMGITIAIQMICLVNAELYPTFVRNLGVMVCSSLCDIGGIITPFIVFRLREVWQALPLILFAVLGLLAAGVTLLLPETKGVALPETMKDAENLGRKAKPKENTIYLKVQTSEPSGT
Source text: as §1, §2, §3, §4

[4] = dogs; cited from earlier work
[5] = molecular target: T4, OCT1*1B (Homo sapiens, UniProt O15245, L160F); experiment: in vitro; details: HEK293 cells overexpressing OCT1*1B, pH 7.4, Km (± SEM), OCT1*1B reference allele, 10-600 μM ranitidine, control-cell uptake subtracted
T4 sequence (O15245 1-554 L160F): T3 sequence (O15245 1-554 R61C/L160F) with C61R
Source text: as §1
(§5) Six hundred thousand HEK293 or CHO cells were plated per well in 12-well plates (pre-coated with poly-D-lysine) and were grown for 48 hours to reach confluence. Cells were kept at 37°C and 5% CO2 in DMEM (HEK293) or RPMI (CHO), supplemented with 10% FCS, 100 U/ml penicillin, and 100 μg/ml streptomycin. Uptake experiments were performed at pH 7.4 using HBSS supplemented with 10 mM HEPES buffer (herein referred to as HBSS+). Cells were washed once with 1 ml pre-warmed HBSS+ buffer (37°C). […] Cells were washed twice with 2 ml ice-cold HBSS+ and lysed in 500 μl lysis buffer.
as §3
(§6) For quantification of intracellular substrates, the cell debris were removed by centrifugation at 17,000 x g for 10 min. Four-hundred μl of the supernatant was evaporated to dryness under nitrogen flow at 40°C. The residue was reconstituted in 200 μl 0.1% formic acid and 10 μl were injected into the LC-MS/MS. For the LC-MS/MS analysis an API 4000™ system tandem mass spectrometer (AB SCIEX, Darmstadt, Germany) was used. Samples were separated using a Brownlee SPP RP-Amide Column (4.6x100 mm, 2.7 μm; PerkinElmer), with a SecurityGuard C18, 4x2 mm pre-column (Phenomenex, Aschaffenburg, Germany).
(§7) Nonlinear regression to the Michaelis-Menten equation was performed to determine Km and vmax using GraphPad Prism version 6 (GraphPad Software Inc., La Jolla, CA, USA). Nonlinear regression to the Hill equation v = vmin+(vmax-vmin)/1+([I]/IC50)^-Hillslope was performed to determine IC50 using SigmaPlot version 12.0 (Systat Software, San Jose, California, USA).

[6] = molecular target: T4, OCT1*1B; details: for Vmax (±SEM): OCT1*1B reference allele, 10-600 μM ranitidine, control-cell uptake subtracted
Source text: as §1, §5, §3, §6, §7

CNC(=C[N+](=O)[O-])NCCSCc1ccc(CN(C)C)o1 [ranitidine, Ranitidine]
reduction of ranitidine uptake, Ser270 allele in comparison to the Ala270 allele [1]: 9%
increase in ranitidine uptake, OCT3-overexpressing cells compared to the controls ([2]; HEK293, 10-600 μM ranitidine, 2 min): up to 2 fold
OCT3-mediated uptake lower than the OCT1-mediated uptake of ranitidine ([2]; at clinically relevant concentrations): more than 14 fold
decrease of vmax compared to the reference allele [3]: more than 50%
reduction of basolateral uptake by co-administration of probenecid [4]: four-fold
Km at 2 min [5]: 62.9 µM
ranitidine uptake, OCT1-overexpressing compared to control cells ([6]; 1 μM ranitidine, 2 min, HEK293): 7.8 fold
intracellular concentration of ranitidine, OCT1-overexpressing cells compared to control cells ([6]; 1 μM ranitidine, after 1 min of incubation, HEK293): 8.5 fold
Vmax (±SEM) ([6]; HEK293, 2 min): 1125 ± 86.1 pmol x min^-1 x mg protein^-1
Vmax (±SEM) ([6]; HEK293, 2 min, listed as Ranitidine): 1125 pmol x min^-1 x mg protein^-1
vmax ([6]; wild-type OCT1 (abstract)): 1125 pmol/min/mg protein

— paper PMC5728534 (PLoS ONE, 2017)
